Biological target: T1, M2 receptor (Homo sapiens, UniProt P08172)
T1 sequence (P08172 1-466): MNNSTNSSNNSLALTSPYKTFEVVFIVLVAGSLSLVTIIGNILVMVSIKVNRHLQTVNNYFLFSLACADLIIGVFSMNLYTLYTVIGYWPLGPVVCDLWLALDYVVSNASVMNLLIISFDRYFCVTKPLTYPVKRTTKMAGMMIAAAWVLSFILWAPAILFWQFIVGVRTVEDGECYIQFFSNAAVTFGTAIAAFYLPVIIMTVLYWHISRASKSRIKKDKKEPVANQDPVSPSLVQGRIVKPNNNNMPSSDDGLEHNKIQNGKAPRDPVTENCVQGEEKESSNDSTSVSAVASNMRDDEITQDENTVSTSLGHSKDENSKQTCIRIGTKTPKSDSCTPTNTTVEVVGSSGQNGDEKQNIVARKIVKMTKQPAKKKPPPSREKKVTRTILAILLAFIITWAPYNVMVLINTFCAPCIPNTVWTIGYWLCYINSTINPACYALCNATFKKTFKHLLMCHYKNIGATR
Assay: Agonist-stimulated GTPγ[35S] binding to Sf9 membranes expressing M2 receptor and individual Gαi/o
Type: biochemical
Design: host or cells: Sf9 insect cells, baculovirus (pFastBac1 / Bac-to-Bac); membranes
Conditions: for Activation of individual Gi/o Gα types: M2 with GαoA, GαoB, Gαi1, Gαi2, Gαi3; for Operational efficacy lower than the efficacy of CBC: at GαoA and GαoB; for Signalling bias among Gαi/o relative to CBC: RAi / bias factor, CBC reference
Procedure: Baculoviral stocks for expression of M2 receptor and individual Gα-subunits of Gi/o G-proteins (GαoA, GαoB, Gαi1, Gαi2, Gαi3) in SF9 cells were generated according to Bac-to-Bac® baculovirus expression system—user guide (https://assets.thermofisher.com/TFS-Assets/LSG/manuals/MAN0000414_BactoBacExpressionSystem_UG.pdf). […] After 96 h at 27 °C, baculoviral viral particles released into the medium were harvested. After centrifugation at 500×g for 10 min to remove detached cells and cell debris, baculoviral stock P0 was ready for amplification. Suspension of Sf9 cells at density 2 × 10^6 cells per ml was infected by baculoviral stock P0 in ratio 1:1000 and after 72 h of growth (in a shaking incubator at 135 rpm and 27 °C) the amplified baculoviral stock P1 was harvested. The cell suspension was centrifugated at 500×g for 10 min to remove cells and cell debris and the supernatant containing a high level of baculoviral particles P1 was collected. FBS to the concentration of 0.5% was added and the stock was stored at 4 °C, protected from light for up to 6 months. For the quantification of baculoviral particles, a plaque assay was used.
Cells were grown in suspension culture in 250 ml Erlenmeyer flasks in Sf-900™ III serum-free medium in an aerated shaking incubator at 27 °C and 135 rpm. Cells were maintained at the density of 1–4 × 10^6 cells per ml. Sf9 cells at the density 2 × 10^6 were co-infected with baculoviral stock for the M2 receptor and a particular Gi/o Gα in the ratio (1:10). […] Infected cells were harvested by centrifugation 1000×g for 10 min. Cell pellets were kept at − 80 °C.
Membranes were prepared as described previously by Randakova et al.[33]. Cells harvested from twenty 100 mm petri dishes (CHO) or 30 ml of cell suspension (Sf9) were suspended in 20 ml of ice-cold incubation medium (100 mM NaCl, 20 mM Na-HEPES, 10 mM MgCl2, pH 7.4) supplemented with 10 mM EDTA and homogenized on ice by two 30‐s strokes using a Polytron homogenizer (Ultra-Turrax; Janke & Kunkel GmbH & Co. KG, IKA-Labortechnik, Staufen, Germany) with a 30 s pause between strokes. Cell homogenates were centrifuged for 5 min at 1000×g to remove whole cells and cell nuclei. The resulting supernatants were centrifuged for 30 min at 30,000×g. Pellets were suspended in a fresh incubation medium, incubated on ice for 30 min, and centrifuged again. The resulting membrane pellets were kept at − 80 °C until assayed within 10 weeks.
Agonist stimulated GTPγ[^35S]binding to membranes from Sf9 cells expressing the M2 receptors in a combination with α-subunit of given Gi/o type (GαoA, GαoB, Gαi1, Gαi2, Gαi3) was measured in 96-well plates in a final volume of 200 µl of incubation medium described above containing 500 pM of GTPγ[^35S] […] Nonspecific binding was determined in the presence of 1 µM nonlabelled GTPγS. Incubations were terminated and processed as described above. Parameters of functional response were calculated according to Eq. (3) after subtraction of non-specific binding.
The basal value of GTPγ[^35S] binding was determined in the absence of the agonist. After subtraction of non-specific binding determined in the presence of 10 μM nonlabelled GTPγS, GTPγ[^35S]binding was divided by the basal value and expressed as folds over basal. […] Then Eq. (3) was fitted to the data using GraphPad. Obtained EMAX and EC50 values were used to calculate RAi values using Eq. (7). To determine τ and KA of the functional responses system EMAX was determined as described earlier. Basal values were subtracted and functional responses were expressed as fractions of system EMAX. […] Obtained τ and KA values were used to calculate the bias factor according to Eq. (8), see below, for each experiment.
Equation (4) was fitted to data by the two-step procedure described earlier[61]

SMILES: C[N+](C)(C)CCOC(N)=O [CBC, carbachol, reference compound]
- GTPγ[35S] binding signal at Gi1 as % of GoA (M2 + Gi1 vs M2 + GoA): 62%
- Activation of individual Gi/o Gα types: activated all Gi/o types

SMILES: c1csc(C[N+]23CCC(CC2)CC3)c1 [JB-8A]
- Activation of individual Gi/o Gα types: activated GαoA and GαoB only
- Operational efficacy lower than the efficacy of CBC: 20–30 ×

SMILES: C[N+]1(Cc2cccs2)CCOCC1 [JB-12-2]
- Signalling bias among Gαi/o relative to CBC (M2): biased to GαoA
- Bias GoA vs GoB (M2, relative to carbachol): more than 5 fold
- Activation of individual Gi/o Gα types: activated all Gi/o Gα

SMILES: COC(=O)C1=CCCN(Cc2cccs2)C1 [JB-13-1]
- Signalling bias among Gαi/o relative to CBC (M2): biased to Gαi3
- Activation of individual Gi/o Gα types: activated all Gi/o Gα

SMILES: C[N+]1(Cc2cccs2)CC=CCC1 (centres unmarked) [JR-6, 1-methyl-1-[(thiophen-2-yl)methyl]-1,2,3,6-tetra hydropyridin-1-ium]
- GTPγ[35S] binding signal (M2 + Gi1): no signal
- GTPγ[35S] binding signal relative to the detection limit (M2 + GoA): more than 20 fold
- Signalling bias among Gαi/o relative to CBC (M2): absolute selectivity to Gαo with a preference for GαoB
- Activation of individual Gi/o Gα types: activated GαoA and GαoB only
- Operational efficacy lower than the efficacy of CBC: approx 10 ×

SMILES: C[N+]1(Cc2ccc(Cl)s2)CC=CCC1 (centres unmarked) [PN-152, 1-[(5-chlorothiophen-2-yl)methyl]-1-methyl-1,2,3,6-tetrahydropyridin-1-ium]
- Signalling bias among Gαi/o relative to CBC (M2): absolute selectivity to Gαo with a preference for GαoB
- Activation of individual Gi/o Gα types: activated GαoA and GαoB only
- Operational efficacy lower than the efficacy of CBC: ~15 ×

— paper PMC11053168, “Agonist-selective activation of individual G-proteins by muscarinic receptors” (Scientific Reports, 2024)
